From patent publication US8039501B2, “Synephrine derivatives useful as anti-inflammatory agents” (Universiteit Gent, priority 2005, dated 2011)

Tests used:
[1] = Serum ELISA of osteoclast and osteoblast markers in DBA/1 mice; details: 300 μg daily, 8 days
From the text: DBA/1 mice—Male 8- to 12-wk-old DBA/1 mice were purchased from Janvier and housed following institutional guidelines. All animal procedures were approved by the institutional animal care and ethics committee. […] The human IL-6 and IL-8 cytoset were purchased from BioSource International, Inc. For the detection of TRAP5b in DBA/1 mice serum we used the Mouse TRAP Assay, purchased from Immunodiagnostic systems limited. The osteocalcin EIA kit was purchased from Biomedical Technologies, Inc. All assays were performed according to the manufacturer's instructions.

[2] = system: MCF7 breast cancer cells; details: 10^−5 M
Protocol: In further experiments, nylon arrayfilter hybridization experiments were performed. cDNA array analyses were carried out according to the instructions of the manufacturer (SuperArray Simplicity GEArray™ KIT) on the cDNA arrays cancer pathway finder and stress and toxicity array. Total RNA, obtained by the protocol as described herein above, was used as a template for [α−^33P]-cDNA probe synthesis using the following steps:
A second array hybridization experiment was performed on Human Stress and Toxicity Pathway Finder GEarray Q series. The same protocol was followed as for the array hybridization experiment on the Human Cancer Pathway Finder described herein above.

[3] = system: bfl1 gene; assay: RNase protection analysis of bfl1 gene in MCF7 cells; assay type: cell-based, human; details: 10 μM pre-treated 2 hours, TNF, FIG. 9
Protocol: In a first specific gene expression experiment, RNAse protection analysis on the bfl1 gene, coding for BCL2-related protein A1 that has anti-apoptotic activity. FIG. 9 illustrates the results of the RNAse protection analysis. Cells were pre-treated with CpdA (10 μM) and DEX (1 μM) for 2 hours before TNF induction or non-induction for a total period of 8 hours. Total RNA was recovered (see hereunder for the total RNA extraction protocol) and an RNA protection Assay (hereinafter referred to as RPA) was performed. Transcripts were quantified by autoradiography followed by densiometry.
For the total RNA extraction, 10^5 cell were homogenized in 1 ml of TRIzol Reagent (GIBCO BRL), incubated 5 minutes at room temperature; then added 200 μl chloroform, vortexed 15 seconds. Mix was incubated on ice for 5 minutes. […]
RNase Protection Assay (Pharmingen) was used for the detection and quantitation of A1/bfl mRNA species. […] The pelleted RNA was re-suspended in 6 μl of gel loading buffer, incubated at 95° C. for 5 minutes, quickly quenched on ice and analyzed by electrophoresis on 6% polyacrylamide/8M urea gels. Visualization and quantitation of radioactive bands was carried out by a Phosphorlmager and scanned using a bioimaging analyzer (Personal Molecular Imager® FX Bio-Rad). Densitometry analysis of autoradiograms was performed using Quantity One (Bio-Rad). […]

CNCC(Cl)c1ccc(OC(C)=O)cc1.Cl (centres unmarked) [CpdA, 2-(4-acetoxyphenyl)-2-chloro-N-methyl-ethylammonium chloride]
Amount of active osteoclasts (TRAP5b) in serum ([1]; FIG. 21A): does not alter the amount of active osteoclasts (TRAP5b)
Osteocalcin levels in mouse serum ([1]; FIG. 21B): does not significantly alter the osteocalcin levels in mouse serum
Gene response of CRYAB, DNAJA1, pcna, mdm2 [2]: increased gene response
Levels of HSPA1A, HSPA1B, HSPA4 (=hsp70), CSF2, SCYA4 (MIP1B), ANXA5, casp10, casp8, ERCC5, TNFSF6 (FasL) [2]: increases levels
Transcription of bfl1 gene (RNase protection) [3]: inhibits transcription of the prosurvival gene A
